# Laboratory results taken from patent US12258338B2, “Modulators of the integrated stress response pathway” (EVOTEC INTERNATIONAL GMBH, priority 2019, dated 2025).
# Read-outs that look alike come from different tables or passages of the source.
# What was measured:
# [1] = system: ATF4; experiment: HEK-ATF4 High Content Imaging assay (prevention of Tunicamycin induced ISR; ATF4 signal ratio between nucleus and cytoplasm); assay type: cell-based
# Method in brief: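 Wild-type HEK293 cells in 0.3% FBS medium were co-treated with compounds and Tunicamycin (3.3 μM in prediluted medium, 11-fold over final) for 6 h at 37 °C. Fixed cells were immunostained for ATF4 with Hoechst nuclei; imaging gave nuclear/cytoplasmic ATF4 ratio, with nuclei counts as toxicity control.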
# [2] = biological target: T1, human ERG potassium channel (hERG) (Homo sapiens, UniProt Q12809); experiment: hERG channel tail current recording using in vitro Rapid ICE (automated patch-clamp, QPatch HTX); assay type: cell-based
# T1 construct: expressed in transfected cells; host or cells: HEK293, stably transfected, tetracycline-inducible promoter
# Method in brief: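 Automated patch clamp on tetracycline-induced HEK293 hERG cells; pulse −80 to −50 mV 200 ms, +20 mV 4.8 s, −50 mV 5 s tail, extracellular pH 7.4. Compound at 0.3, 3, 30 μM (0.3% DMSO), 5 min exposure; tail current versus vehicle gives % inhibition and estimated IC50.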
# [3] = Log D 7.4 assay (1-octanol / phosphate buffer pH 7.4); assay type: physicochemical
# Protocol: Phosphate buffer (1 M) was diluted to 20 mM with deionised water and adjusted to pH 7.4 (±0.05) with phosphoric acid or sodium hydroxide. A 1:1 mixture of phosphate buffer (20 mM) and 1-octanol were saturated by tumbling overnight after which time the two phases were separated. Using an automated liquid handler the following procedure was carried out: 20 mM DMSO stocks of assay and control compounds were reformatted to provide cassettes of 4 compounds per well giving a final concentration of 5 mM per compound. In duplicate 5 μL of the cassetted compounds were added to 495 μL 1-octanol (saturated with buffer) followed by 495 μL of buffer (saturated with 1-octanol) in a 96-well plate giving final incubation concentrations of 25 μM (50 μM max concentration in either layer if all compound partitioned into a single matrix). The layers were mixed by aspirating and dispensing the buffer and octanol layers into one another three times. The plate was sealed, shaken for 120 minutes and then centrifuged at 25° C. for 15 min at 4600 rpm. The 1-octanol and buffer layer were sampled separately (ensuring no cross contamination) and the respective samples diluted with 60:40 ACN:0.1 M ammonium acetate pH 7.4 (containing external standard; Sulfisoxazole, assay concentration 120 nM) to obtain final theoretical maximum concentrations of the 1-octanol layer of 0.025 μM, 0.5 μM and a buffer layer concentration of 0.5 μM. The second buffer sample was prepared by diluting the assay buffer layer with acetonitrile (containing external standard; Sulfisoxazole, assay concentration 120 nM) to give a theoretical maximum concentration of 20 μM. The analytical samples were analysed by LC-MS/MS and the Log D calculated as shown:
# [formula] Where PA=Peak area and ES=External standard
# [4] = Homo sapiens, Wild-type HEK293 cells, Tunicamycin induced ISR, 6 h, read-out: IIEK-ATF4 Activity
# [5] = Table 24 category key, read-out: HEK-ATF4 Activity*
# T1 sequence (Q12809 whole entry): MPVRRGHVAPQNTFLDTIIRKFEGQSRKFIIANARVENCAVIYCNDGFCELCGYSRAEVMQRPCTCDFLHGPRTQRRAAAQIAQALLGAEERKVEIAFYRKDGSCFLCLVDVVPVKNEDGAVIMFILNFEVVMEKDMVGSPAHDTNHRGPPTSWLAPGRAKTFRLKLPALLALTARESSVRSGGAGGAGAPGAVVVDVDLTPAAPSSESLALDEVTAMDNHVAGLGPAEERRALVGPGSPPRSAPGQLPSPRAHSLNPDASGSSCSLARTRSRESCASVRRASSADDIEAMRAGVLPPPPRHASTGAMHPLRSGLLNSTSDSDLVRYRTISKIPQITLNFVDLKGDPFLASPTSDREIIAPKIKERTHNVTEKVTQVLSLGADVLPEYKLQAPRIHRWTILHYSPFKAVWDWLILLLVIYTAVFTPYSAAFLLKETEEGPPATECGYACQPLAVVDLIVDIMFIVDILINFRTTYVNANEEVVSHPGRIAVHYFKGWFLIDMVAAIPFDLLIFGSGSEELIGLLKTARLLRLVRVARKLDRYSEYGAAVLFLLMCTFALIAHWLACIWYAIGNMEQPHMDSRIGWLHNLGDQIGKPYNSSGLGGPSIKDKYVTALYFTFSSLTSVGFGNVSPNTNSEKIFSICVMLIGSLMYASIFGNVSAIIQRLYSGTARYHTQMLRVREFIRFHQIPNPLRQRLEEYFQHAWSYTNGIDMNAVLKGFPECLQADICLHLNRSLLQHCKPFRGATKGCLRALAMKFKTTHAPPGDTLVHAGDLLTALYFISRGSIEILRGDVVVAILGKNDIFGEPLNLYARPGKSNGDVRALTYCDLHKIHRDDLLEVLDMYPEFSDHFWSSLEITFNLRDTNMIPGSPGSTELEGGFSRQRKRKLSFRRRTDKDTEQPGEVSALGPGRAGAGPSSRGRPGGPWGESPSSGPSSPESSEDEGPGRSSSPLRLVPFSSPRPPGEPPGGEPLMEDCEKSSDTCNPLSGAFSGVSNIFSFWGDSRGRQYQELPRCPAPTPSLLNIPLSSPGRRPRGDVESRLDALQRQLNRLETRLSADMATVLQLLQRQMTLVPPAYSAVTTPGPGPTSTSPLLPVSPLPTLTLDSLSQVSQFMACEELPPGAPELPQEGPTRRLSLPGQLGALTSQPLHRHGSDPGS
"IC50 [1, 4] [nM]","IC50 [1, 5] [nM]",logD at 120 min [3],Structure (SMILES),IC50 ([2]; Table 24) [nM],IC50 ([2]; Table 26) [nM]
1 to 500,1 to 500,2.7,"O=C(COc1ccc(Cl)c(F)c1)N[C@H]1CC[C@H](c2nnc([C@H]3C[C@@H](OC(F)(F)F)C3)o2)NC1 [Example 50, 2-(4-chloro-3-fluorophenoxy)-N-[(3S,6R)-6-{5-[(1s,3s)-3-(trifluoromethoxy)cyclobutyl]-1,3,4-oxadiazol-2-yl}piperidin-3-yl]acetamide]",1000 to 5000,> 5000
2000 to 15000,500 to 2000,2.3,"O=C(COc1ccc(Cl)c(F)c1)N[C@H]1CC[C@H](c2nnc(COC(F)(F)F)o2)NC1 [Example 61, 2-(4-chloro-3-fluorophenoxy)-N-[(3S,6R)-6-(5-[(trifluoromethoxy)methyl]-1,3,4-oxadiazol-2-yl}piperidin-3-yl]acetamide]",1000 to 5000,1000 to 5000
